Data as given in patent publication US20210047366A1, “ANDRIAS DAVIDIANUS CARTILAGE PREPARATION” (TSINGHUA UNIVERSITY, priority 2017, published 2021).
No end group written: not given here.

Biological target: XOD (xanthine oxidase) enzyme (Sigma, derived from milk) (Bos taurus, UniProt P80457)
Assay: XOD enzyme activity inhibition (XOD enzyme activity detection kit, uric acid absorption at 295 nm)
Conditions: for IC50: half-inhibitory concentration on XOD; for XOD enzyme activity inhibition: concentration three times the half-inhibitory concentration

Chain of XOD (xanthine oxidase) enzyme (Sigma, derived from milk) (P80457 whole entry): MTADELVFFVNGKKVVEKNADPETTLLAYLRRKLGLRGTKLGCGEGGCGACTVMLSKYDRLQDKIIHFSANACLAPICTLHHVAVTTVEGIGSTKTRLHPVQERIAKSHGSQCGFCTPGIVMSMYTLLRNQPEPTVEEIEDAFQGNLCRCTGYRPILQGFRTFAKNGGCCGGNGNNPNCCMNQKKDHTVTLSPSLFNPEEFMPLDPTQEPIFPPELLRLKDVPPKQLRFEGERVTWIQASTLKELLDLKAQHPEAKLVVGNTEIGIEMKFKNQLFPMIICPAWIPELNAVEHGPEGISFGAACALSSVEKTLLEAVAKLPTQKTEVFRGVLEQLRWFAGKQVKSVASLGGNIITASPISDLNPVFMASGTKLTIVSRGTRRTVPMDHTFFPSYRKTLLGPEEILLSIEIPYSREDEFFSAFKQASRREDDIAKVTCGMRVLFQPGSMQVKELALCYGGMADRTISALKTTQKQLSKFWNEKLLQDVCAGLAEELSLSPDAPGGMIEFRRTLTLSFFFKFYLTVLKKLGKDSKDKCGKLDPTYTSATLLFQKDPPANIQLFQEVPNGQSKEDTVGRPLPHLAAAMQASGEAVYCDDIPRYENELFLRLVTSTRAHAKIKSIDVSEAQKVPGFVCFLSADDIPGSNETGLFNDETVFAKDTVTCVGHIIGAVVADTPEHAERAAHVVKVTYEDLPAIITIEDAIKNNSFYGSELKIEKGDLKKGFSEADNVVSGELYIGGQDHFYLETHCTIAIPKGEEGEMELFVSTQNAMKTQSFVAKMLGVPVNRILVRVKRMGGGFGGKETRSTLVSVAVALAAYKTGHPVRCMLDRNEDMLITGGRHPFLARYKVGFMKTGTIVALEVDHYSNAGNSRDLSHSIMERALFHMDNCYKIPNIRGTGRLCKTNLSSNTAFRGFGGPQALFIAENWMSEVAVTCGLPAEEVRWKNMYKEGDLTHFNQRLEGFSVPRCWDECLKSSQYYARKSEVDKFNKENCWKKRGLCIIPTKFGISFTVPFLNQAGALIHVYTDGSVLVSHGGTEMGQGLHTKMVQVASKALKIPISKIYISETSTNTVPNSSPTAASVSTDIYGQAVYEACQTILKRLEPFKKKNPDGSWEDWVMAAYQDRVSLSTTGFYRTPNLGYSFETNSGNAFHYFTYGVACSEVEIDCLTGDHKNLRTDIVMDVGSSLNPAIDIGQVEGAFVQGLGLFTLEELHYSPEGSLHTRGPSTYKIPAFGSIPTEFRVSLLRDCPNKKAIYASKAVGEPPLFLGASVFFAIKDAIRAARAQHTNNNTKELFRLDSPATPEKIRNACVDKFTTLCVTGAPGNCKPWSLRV

Molecule | IC50 (IC50(M), Table 5, molar) | XOD enzyme activity inhibition | IC50 | activity at 20 µg/mL (read-out: XOD activity (%)) | activity at 40 µg/mL (read-out: XOD activity (%)) | activity at 80 µg/mL (read-out: XOD activity (%)) | also measured
Oc1ncnc2[nH]ncc12 [Allopurinol, reference compound] | – | – | – | – | – | – | XOD enzyme activity retained (concentration 30 μg/mL): about 10%; activity at 0.2 µg/mL (read-out: XOD activity (%)): 59.4%; activity at 0.4 µg/mL (read-out: XOD activity (%)): 34.7%; activity at 0.8 µg/mL (read-out: XOD activity (%)): 31.2%
HDLPLPLPE [Peptide S3] | 5.82e-05 M | completely inhibited | 5.82e-05 M | 87.2% | 67.3% | 46.9% | –
DNLPPLPK [Peptide S4] | 6.72e-05 M | completely inhibited | 6.72e-05 M | 87.9% | 67.7% | 43.2% | –
VPSGPLGPEGPR [Peptide S1] | 0.00275 M | – | – | – | – | – | IC50 (same reaction system): 0.00275 M; activity at 2500 µg/mL (read-out: XOD activity (%)): 57.6%; activity at 5000 µg/mL (read-out: XOD activity (%)): 36.7%; activity at 10000 µg/mL (read-out: XOD activity (%)): 26.9%
TGPLGPSPGP [Peptide S2] | 0.000125 M | completely inhibited | 0.000125 M | – | – | – | activity at 50 µg/mL (read-out: XOD activity (%)): 80%; activity at 100 µg/mL (read-out: XOD activity (%)): 55.8%; activity at 200 µg/mL (read-out: XOD activity (%)): 17.9%
